Data on 19 molecules can be found in US10138229B2, “Heteroaromatic compounds as BTK inhibitors” (Boehringer Ingelheim International GmbH, priority 2012, dated 2018).

Structures are written as SMILES.

Usually IC50 stands for the concentration that gives 50% inhibition.

In assay [1] the target is full-length human His-tagged BTK (Homo sapiens (Human), UniProt Q06187). The assay is described as follows: BTK Assay (HTRF, Cisbio KinEASE-TK). The format is biochemical. The following applies: 6 nM BTK, 30 uM ATP, 15 min preincubation.
Method: An HTRF assay (Cisbio KinEASE-TK cat #62TKOPEC) was performed to quantitate the ability of test compounds to inhibit BTK mediated phosphorylation of substrate. Assays were assembled in 384 well plates where 6 nM of full-length human His-tagged BTK (Life Technologies cat # PV3587) and test compound at varying concentrations were preincubated for 15 minutes at 28° C. Then, 1 uM of TK substrate-biotin and 30 uM ATP were added and incubated for an additional 30 minutes at 28° C.
A further assay addresses BTK (Homo sapiens (Human), UniProt Q06187). The assay is described as follows: Inhibition of B-cell activation measured by CD69 expression in primary CD19+ cells. The format is cell-based. The following applies: primary CD19+ cells stimulated with anti-human IgD, CD69 expression by flow cytometry. As to the method: Cells were collected and plated in a 96 flat bottom plate at a concentration of 2×10^5/well in RPMI media containing 10% FBS, rested for 1 hour at 37° c. Cells were treated with inhibitor in duplicates or vehicle control in 1% DMSO final concentration for 1 hour at 37° c., 5% CO2. […] B cells were analyzed by flow cytometry using a BD LSRII or BD FACsCanto Flow Cytometer. Viable cells were gated, and CD69 percentage was determined using FlowJo software.

A further assay deals with EGFR (Homo sapiens (Human), UniProt P00533). Description: Inhibition of EGFR autophosphorylation in A431 human epithelial cells stimulated with EGF. In kind it is cell-based. The following applies: EGF 60 ng/mL, phospho EGFR, read-out: A431 p-EGFR IC50. From the text:
The compounds described herein show a range of selectivities against EGFR as measured in cellular assays (BTK activity measured by CD69 expression in primary CD19^+ cells; EGFR activity measured by EGFR phosphorylation in A431 cells).
Inhibition of EGFR Autophosphorylation in A431 Human Epithelial Cells Stimulated with Epithelial Growth Factor
A431 cells (ATCC # CRL-1555 FZ) are thawed and plated in DMEM containing 10% FBS in a 384-well tissue culture treated plate at 15,000 cells/well. After incubating for 24 hours at 37° C., 5% CO2, the cells are treated with test compound (1% DMSO final concentration) and incubated for 16 hours at 37° C., 5% CO2. EGF (Millipore, 01-107) is added at a final concentration of 60 ng/mL and incubated for 10 minutes. The medium is removed, the cells are lysed, and phospho EGFR is measured (Meso Scale Diagnostics, N31CB-1).

full-length human His-tagged BTK, sequence (Q06187 whole entry): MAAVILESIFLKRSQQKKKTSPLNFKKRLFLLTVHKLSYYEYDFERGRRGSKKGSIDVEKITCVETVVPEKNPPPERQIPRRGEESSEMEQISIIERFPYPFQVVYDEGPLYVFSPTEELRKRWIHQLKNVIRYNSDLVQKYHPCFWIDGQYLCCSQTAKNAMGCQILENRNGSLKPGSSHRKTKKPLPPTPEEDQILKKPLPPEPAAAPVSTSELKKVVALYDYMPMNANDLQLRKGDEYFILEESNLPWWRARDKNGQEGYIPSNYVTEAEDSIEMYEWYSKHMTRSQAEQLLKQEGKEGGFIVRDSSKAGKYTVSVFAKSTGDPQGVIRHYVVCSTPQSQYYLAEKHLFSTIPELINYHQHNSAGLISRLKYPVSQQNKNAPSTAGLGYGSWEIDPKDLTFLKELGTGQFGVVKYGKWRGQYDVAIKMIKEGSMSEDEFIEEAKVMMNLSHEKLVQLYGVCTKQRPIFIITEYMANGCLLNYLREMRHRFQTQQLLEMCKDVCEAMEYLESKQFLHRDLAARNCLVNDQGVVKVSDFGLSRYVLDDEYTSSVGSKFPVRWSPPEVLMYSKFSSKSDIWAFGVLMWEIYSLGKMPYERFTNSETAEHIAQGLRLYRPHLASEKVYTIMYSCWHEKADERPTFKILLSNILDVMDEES
BTK, sequence (Q06187 whole entry): as above
EGFR, sequence (P00533 25-1210): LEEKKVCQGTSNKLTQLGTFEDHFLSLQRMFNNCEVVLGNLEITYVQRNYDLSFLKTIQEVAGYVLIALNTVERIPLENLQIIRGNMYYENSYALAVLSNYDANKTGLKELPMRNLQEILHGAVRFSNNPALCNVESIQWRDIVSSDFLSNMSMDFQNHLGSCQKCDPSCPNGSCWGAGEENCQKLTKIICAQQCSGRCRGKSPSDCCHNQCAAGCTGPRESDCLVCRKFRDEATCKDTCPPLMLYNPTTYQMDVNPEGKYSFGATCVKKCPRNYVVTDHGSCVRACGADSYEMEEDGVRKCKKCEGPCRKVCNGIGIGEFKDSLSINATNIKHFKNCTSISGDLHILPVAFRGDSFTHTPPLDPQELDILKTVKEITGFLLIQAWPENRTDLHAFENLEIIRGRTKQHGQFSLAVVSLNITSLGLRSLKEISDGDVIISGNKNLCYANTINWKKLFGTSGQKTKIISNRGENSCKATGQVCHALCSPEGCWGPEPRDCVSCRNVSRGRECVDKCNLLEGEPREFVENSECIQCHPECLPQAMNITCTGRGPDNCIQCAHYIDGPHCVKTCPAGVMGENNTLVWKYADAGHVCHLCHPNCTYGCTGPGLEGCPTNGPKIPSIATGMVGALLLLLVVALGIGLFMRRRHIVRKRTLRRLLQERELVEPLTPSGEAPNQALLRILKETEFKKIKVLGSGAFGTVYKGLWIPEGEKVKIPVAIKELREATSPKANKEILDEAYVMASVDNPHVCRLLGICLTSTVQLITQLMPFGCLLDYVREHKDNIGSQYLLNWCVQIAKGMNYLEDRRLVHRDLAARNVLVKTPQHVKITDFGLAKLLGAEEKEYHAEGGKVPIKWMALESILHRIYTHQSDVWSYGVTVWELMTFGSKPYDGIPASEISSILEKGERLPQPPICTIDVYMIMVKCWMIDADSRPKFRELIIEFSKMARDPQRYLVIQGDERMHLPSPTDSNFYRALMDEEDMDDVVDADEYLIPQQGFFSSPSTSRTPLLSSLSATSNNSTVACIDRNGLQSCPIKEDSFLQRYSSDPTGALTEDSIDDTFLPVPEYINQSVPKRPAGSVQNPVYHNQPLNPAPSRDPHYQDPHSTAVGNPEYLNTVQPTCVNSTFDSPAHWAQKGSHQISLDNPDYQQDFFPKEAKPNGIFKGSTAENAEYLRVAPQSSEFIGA

Take `C=CC(=O)N1CC2(CC(n3cc(C(N)=O)c(-c4ccc(Oc5ccccc5)cc4)n3)C2)C1` [Example 28]: the half-maximal inhibitory concentration (IC50) was 3.5 nM in assay [1], 9 nM against BTK and 4700 nM at EGFR.
As to `CC#CC(=O)N1CC[C@]2(C1)C[C@H](n1nc(-c3ccc(OC)cc3Cl)c(C(N)=O)c1N)C2` [Example 158], the results for the half-maximal inhibitory concentration (IC50) (in assay [1]; against BTK; at EGFR) were 6.3 nM, 58 nM and > 10000 nM, respectively.
The corresponding values for `C=CC(=O)N1CC[C@]2(C1)C[C@H](n1nc(-c3ccc(OCCC)c(F)c3)c(C(N)=O)c1N)C2` [Example 165] are 15 nM, 10 nM and 3700 nM.
As for `CC#CC(=O)N1CC[C@]2(C1)C[C@H](n1nc(-c3ccc(OCC(F)(F)F)cc3)c(C(N)=O)c1N)C2` [Example 164], the results for the half-inhibitory concentration (IC50) (in assay [1]; on BTK; at EGFR) were 0.5 nM, 1.5 nM and 420 nM, respectively.
For `CC#CC(=O)N1CC[C@]2(C1)C[C@H](n1nc(-c3ccc(OCCC)c(F)c3)c(C(N)=O)c1N)C2` [Example 161], the half-maximal inhibitory concentration (IC50) in assay [1] was found to be 1.1 nM; on BTK, 2.1 nM; on EGFR, 400 nM.
For `C=CC(=O)N1CC[C@]2(C1)C[C@H](n1cc(C(N)=O)c(-c3ccc(Oc4ccccc4)cc3)n1)C2` [Example 40], the IC50 in assay [1] was 4.9 nM; against BTK, 20 nM; at EGFR, > 10000 nM.
Take `C=CC(=O)N1CC[C@]2(C1)C[C@H](n1nc(-c3ccc(OCC(F)(F)F)cc3)c(C(N)=O)c1N)C2` [Example 163]: the IC50 in assay [1] came out at 4.8 nM; at BTK it was 15 nM; at EGFR, 5200 nM.
Take `CC#CC(=O)N1CC2(CC(n3nc(-c4ccc(Oc5ccccc5)cc4)c(C(N)=O)c3N)C2)C1` [Example 41]: the IC50 came out at 0.73 nM in assay [1], 1 nM against BTK and 430 nM on EGFR.
On to `C=CC(=O)N1CC[C@]2(C1)C[C@@H](n1nc(-c3ccc(Oc4ccccc4)cc3)c(C(N)=O)c1N)C2` [Example 81], for which the results for the IC50 (in assay [1]; at BTK; at EGFR) were 0.79 nM, 0.9 nM and 790 nM, respectively.
The corresponding values for `CC#CC(=O)N1CC[C@]2(C1)C[C@H](n1nc(-c3ccc(OC(F)(F)F)cc3)c(C(N)=O)c1N)C2` [Example 160] are 1.4 nM, 4.5 nM and 1200 nM.
With `CC#CC(=O)N1CC2(CC(n3nc(-c4ccc(OC(C)C)cc4)c(C(N)=O)c3N)C2)C1` [Example 106], the figures for the half-inhibitory concentration (IC50) (in assay [1]; against BTK; on EGFR) were 13 nM, 30 nM and > 10000 nM, respectively.
In the case of `C=CC(=O)N1CC2(CC(n3nc(-c4ccc(OC5CC5)cc4)c(C(N)=O)c3N)C2)C1` [Example 112], the IC50 in assay [1] was found to be 6.7 nM; at BTK, 41 nM; at EGFR, 5800 nM.
On to `CC#CC(=O)N1CC[C@]2(C1)C[C@@H](c1nc(-c3ccc(Oc4ccccc4)cc3)c(C(N)=O)s1)C2` [Example 78], for which the figures for the IC50 (in assay [1]; against BTK; on EGFR) were 2.1 nM, 2.5 nM and 1800 nM, respectively.
With `CC#CC(=O)N1CC2(CC(n3nc(-c4ccc(OCCC)cc4)c(C(N)=O)c3N)C2)C1` [Example 107], the IC50 in assay [1] stood at 3.3 nM; on BTK it was 8.2 nM; at EGFR, 4200 nM.
Turning to `C=CC(=O)N1CCC[C@@H](c2nc(-c3ccc(Oc4ccccc4)cc3)c(C(N)=O)[nH]2)C1` [Example 46], the IC50 in assay [1] came to 1.2 nM; against BTK it was 2 nM; at EGFR, 120 nM.
For the molecule `C=CC(=O)N1CCC[C@@H](n2nc(-c3ccc(Oc4ccccc4)cc3)c(C(N)=O)c2N)C1` [Example 54], the IC50 at EGFR came to 6.6 nM.
With `CC#CC(=O)N1CC2(CC(n3nc(-c4ccc(OCC(F)(F)F)cc4)c(C(N)=O)c3N)C2)C1` [Example 115], the half-maximal inhibitory concentration (IC50) turned out to be 3.5 nM in assay [1], 7.8 nM against BTK and 6400 nM on EGFR.
Consider `C=CC(=O)N1CCC[C@@H](n2cc(C(N)=O)c(-c3ccc(Oc4ccc(Cl)cc4)cc3)n2)C1` [Example 70], for which inhibition in assay [1] was half-maximal at 45 nM (IC50).
Molecule `CC#CC(=O)N1CC2(CC(n3nc(-c4ccc(OCCC)c(F)c4)c(C(N)=O)c3N)C2)C1` [Example 138] came in with an IC50 in assay [1] of 2.2 nM.
